From article PMC12196347, “Evaluating Triazole-Substituted Pyrrolopyrimidines as CSF1R Inhibitors” (Molecules, 2025)
Values after ≈ are worked out from the molar mass of the structure shown. Like-named read-outs stand apart in the source and are kept apart here.

How the values were obtained:
ABL2 (Arg) = target: T1, ABL2 (Arg) (Homo sapiens, UniProt P42684); experiment: Kinase panel profiling: ABL2; assay type: biochemical; details: ATP equal to KM
T1 construct: purchased Thermo Fisher Scientific (Invitrogen) SelectScreen (Z'-LYTE)

MINK1 = target: T2, MINK1 (Homo sapiens, UniProt Q8N4C8); experiment: Kinase panel profiling: MINK1; assay type: biochemical; details: ATP equal to KM
T2 construct: purchased Thermo Fisher Scientific (Invitrogen) SelectScreen (Z'-LYTE)

PDGFRB (PDGFR beta) = PDGFRB (PDGFR beta) (Homo sapiens, UniProt P09619); experiment: Kinase panel profiling: PDGFRB; assay type: biochemical; details: ATP equal to KM
Sequence of PDGFRB (PDGFR beta) (P09619 33-1106): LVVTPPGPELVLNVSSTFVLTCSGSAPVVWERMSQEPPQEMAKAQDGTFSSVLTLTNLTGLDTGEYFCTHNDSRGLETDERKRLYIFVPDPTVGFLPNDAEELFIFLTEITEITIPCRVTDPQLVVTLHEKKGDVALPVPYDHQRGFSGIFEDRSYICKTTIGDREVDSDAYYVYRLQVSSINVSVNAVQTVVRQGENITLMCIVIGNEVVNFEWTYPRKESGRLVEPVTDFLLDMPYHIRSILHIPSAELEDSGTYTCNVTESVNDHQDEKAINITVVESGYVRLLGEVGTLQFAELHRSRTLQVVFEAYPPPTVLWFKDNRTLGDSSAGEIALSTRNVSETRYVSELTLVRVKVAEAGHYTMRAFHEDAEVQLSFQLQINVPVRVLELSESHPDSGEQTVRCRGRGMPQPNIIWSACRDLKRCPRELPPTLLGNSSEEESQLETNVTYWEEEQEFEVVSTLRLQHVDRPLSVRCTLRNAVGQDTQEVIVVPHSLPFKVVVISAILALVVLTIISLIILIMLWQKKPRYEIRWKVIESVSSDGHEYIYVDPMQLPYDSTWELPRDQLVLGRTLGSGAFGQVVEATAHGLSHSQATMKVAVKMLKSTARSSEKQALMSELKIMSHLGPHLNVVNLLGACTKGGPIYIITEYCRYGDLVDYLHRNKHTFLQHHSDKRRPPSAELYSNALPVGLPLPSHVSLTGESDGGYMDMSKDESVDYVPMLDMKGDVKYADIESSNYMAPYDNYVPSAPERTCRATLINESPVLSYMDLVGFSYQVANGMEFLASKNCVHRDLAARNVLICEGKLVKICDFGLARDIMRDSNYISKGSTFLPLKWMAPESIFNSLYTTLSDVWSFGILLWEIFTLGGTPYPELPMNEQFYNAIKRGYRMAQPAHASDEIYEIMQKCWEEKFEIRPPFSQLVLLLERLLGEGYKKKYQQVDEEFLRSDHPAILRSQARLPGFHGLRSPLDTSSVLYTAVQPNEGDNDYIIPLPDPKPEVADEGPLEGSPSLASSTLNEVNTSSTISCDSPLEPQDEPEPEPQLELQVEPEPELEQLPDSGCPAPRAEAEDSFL

[1] = system: IL-3 dependent Ba/F3 cell line (CSF1R independent); experiment: Control assay for cellular toxicity, Ba/F3 cells dependent on IL-3; assay type: cell-based; details: Mus musculus, BaF3; Ba/F3 cells dependent on IL-3, control for cellular toxicity
ALK = target: T3, ALK (Homo sapiens, UniProt Q9UM73); experiment: Kinase panel profiling: ALK; assay type: biochemical; details: ATP equal to KM
T3 construct: purchased Thermo Fisher Scientific (Invitrogen) SelectScreen (Z'-LYTE)

[2] = Kinetic solubility, spectrophotometric; assay type: physicochemical; details: aqueous buffer, kinetic from dmso stock, spectrophotometrically at pH 7.4 in HEPES buffer
DAPK1 = target: T4, DAPK1 (Homo sapiens, UniProt P53355); experiment: Kinase panel profiling: DAPK1; assay type: biochemical; details: ATP equal to KM
T4 construct: purchased Thermo Fisher Scientific (Invitrogen) SelectScreen (Z'-LYTE)

CSF1R = target: T5, CSF1R (Homo sapiens, UniProt P07333); experiment: CSF1R enzymatic inhibition, TR-FRET-based LANCE Ultra assay; assay type: biochemical; details: single 8-point titrations, ATP concentration 25 µM, read-out: Enz. IC50
T5 sequence (P07333 539-972 limits assumed): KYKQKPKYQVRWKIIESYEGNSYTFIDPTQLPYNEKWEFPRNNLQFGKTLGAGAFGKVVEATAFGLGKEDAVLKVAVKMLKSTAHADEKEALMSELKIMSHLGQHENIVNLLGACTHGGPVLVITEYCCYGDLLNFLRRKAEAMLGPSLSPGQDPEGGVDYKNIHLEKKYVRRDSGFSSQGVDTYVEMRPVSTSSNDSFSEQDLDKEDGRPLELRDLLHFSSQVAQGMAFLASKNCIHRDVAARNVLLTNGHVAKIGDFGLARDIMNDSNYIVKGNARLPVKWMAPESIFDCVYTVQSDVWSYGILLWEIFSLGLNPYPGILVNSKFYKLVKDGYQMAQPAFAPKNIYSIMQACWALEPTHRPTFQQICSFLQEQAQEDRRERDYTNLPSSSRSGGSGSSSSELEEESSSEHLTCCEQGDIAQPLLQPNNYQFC

panel of 49 kinases = experiment: Selectivity score from the kinase panel; assay type: biochemical; details: 1000 nM
HCK = target: T6, HCK (Homo sapiens, UniProt P08631); experiment: Kinase panel profiling: HCK; assay type: biochemical; details: ATP equal to KM
T6 construct: purchased Thermo Fisher Scientific (Invitrogen) SelectScreen (Z'-LYTE)

FGFR1 = target: T7, FGFR1 (Homo sapiens, UniProt P11362); experiment: Kinase panel profiling: FGFR1; assay type: biochemical; details: ATP equal to KM
T7 construct: purchased Thermo Fisher Scientific (Invitrogen) SelectScreen (Z'-LYTE)
T7 sequence (P11362 22-822): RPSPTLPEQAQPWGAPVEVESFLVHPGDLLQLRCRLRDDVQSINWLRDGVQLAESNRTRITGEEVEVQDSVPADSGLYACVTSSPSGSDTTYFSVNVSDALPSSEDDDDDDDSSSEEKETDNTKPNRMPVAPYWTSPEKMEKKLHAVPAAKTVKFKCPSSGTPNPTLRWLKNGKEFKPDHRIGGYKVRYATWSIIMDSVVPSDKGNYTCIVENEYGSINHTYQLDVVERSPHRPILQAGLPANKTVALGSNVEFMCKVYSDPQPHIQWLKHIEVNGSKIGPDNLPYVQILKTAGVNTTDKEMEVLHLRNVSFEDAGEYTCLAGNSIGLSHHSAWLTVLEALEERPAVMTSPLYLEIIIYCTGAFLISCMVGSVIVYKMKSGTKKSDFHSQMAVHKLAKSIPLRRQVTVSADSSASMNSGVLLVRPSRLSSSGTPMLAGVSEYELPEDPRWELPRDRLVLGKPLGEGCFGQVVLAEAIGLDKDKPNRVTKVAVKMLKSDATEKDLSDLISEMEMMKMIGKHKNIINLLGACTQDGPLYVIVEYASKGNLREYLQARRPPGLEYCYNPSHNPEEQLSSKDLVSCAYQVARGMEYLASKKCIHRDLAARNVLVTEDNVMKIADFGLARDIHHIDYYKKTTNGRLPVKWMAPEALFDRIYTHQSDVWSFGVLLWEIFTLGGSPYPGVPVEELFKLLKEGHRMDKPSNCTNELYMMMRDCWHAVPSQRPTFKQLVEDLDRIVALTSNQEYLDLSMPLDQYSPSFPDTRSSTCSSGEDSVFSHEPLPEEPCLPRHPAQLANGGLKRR

EGFR (ErbB1) = target: T8, EGFR (ErbB1) (Homo sapiens, UniProt P00533); experiment: Kinase panel profiling: EGFR; assay type: biochemical; details: ATP equal to KM
T8 construct: purchased Thermo Fisher Scientific (Invitrogen) SelectScreen (Z'-LYTE)
T8 sequence (P00533 25-1210): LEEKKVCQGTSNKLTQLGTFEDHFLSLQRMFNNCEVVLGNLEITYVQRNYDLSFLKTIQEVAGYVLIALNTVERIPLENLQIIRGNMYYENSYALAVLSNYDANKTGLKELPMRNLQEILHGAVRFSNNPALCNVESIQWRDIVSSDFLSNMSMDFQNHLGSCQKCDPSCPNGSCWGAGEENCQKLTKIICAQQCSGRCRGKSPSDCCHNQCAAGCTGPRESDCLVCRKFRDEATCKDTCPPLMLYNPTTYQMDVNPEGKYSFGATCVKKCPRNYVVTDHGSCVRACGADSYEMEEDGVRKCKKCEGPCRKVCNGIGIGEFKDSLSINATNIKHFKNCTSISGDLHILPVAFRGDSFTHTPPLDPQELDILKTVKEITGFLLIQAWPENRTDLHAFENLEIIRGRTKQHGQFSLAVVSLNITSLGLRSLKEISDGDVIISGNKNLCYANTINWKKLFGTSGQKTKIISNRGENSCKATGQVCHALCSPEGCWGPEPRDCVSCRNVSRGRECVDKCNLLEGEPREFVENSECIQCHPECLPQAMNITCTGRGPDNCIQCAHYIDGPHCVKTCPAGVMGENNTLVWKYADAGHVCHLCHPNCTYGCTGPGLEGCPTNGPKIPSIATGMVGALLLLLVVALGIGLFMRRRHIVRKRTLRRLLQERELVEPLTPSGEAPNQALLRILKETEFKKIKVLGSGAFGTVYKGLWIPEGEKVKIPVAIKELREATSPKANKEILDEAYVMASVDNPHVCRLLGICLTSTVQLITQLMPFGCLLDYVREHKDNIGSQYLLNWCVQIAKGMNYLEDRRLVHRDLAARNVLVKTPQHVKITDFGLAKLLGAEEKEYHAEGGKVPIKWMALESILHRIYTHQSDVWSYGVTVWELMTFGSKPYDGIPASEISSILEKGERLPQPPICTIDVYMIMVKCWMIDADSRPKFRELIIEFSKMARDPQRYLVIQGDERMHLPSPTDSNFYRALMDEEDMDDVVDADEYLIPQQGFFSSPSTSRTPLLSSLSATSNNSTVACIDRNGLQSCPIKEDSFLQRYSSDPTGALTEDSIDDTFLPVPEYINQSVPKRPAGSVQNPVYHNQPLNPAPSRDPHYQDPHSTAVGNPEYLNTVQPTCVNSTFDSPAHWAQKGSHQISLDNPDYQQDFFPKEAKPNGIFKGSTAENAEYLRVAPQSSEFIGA

FER = target: T9, FER (Homo sapiens, UniProt P16591); experiment: Kinase panel profiling: FER; assay type: biochemical; details: ATP equal to KM
T9 construct: purchased Thermo Fisher Scientific (Invitrogen) SelectScreen (Z'-LYTE)

[3] = Human liver microsome intrinsic clearance, Phase I; assay type: in vitro ADME; details: in vitro intrinsic clearance
LYN B = target: T10, LYN B (Homo sapiens, UniProt P07948); experiment: Kinase panel profiling: LYN B; assay type: biochemical; details: ATP equal to KM
T10 construct: purchased Thermo Fisher Scientific (Invitrogen) SelectScreen (Z'-LYTE)
T10 sequence (P07948 1-491 isoform P07948-2): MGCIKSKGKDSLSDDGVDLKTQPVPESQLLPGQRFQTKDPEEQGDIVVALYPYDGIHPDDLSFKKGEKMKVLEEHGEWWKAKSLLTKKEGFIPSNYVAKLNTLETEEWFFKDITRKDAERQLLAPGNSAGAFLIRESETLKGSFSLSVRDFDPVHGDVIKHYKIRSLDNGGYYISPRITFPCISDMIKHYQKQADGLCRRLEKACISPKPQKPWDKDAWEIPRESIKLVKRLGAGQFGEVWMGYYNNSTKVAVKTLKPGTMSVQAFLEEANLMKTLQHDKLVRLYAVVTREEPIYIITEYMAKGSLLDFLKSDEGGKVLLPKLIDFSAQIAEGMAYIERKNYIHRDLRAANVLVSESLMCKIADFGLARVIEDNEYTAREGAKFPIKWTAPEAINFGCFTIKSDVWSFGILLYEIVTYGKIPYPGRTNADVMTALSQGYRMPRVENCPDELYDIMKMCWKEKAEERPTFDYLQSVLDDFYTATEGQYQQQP

ABL1 = target: T11, ABL1 (Homo sapiens, UniProt P00519); experiment: Kinase panel profiling: ABL1; assay type: biochemical; details: ATP equal to KM
T11 construct: purchased Thermo Fisher Scientific (Invitrogen) SelectScreen (Z'-LYTE)

MDCK permeability assay = assay type: in vitro ADME, canine; details: dog, MDCK cell monolayer
AURKA (Aurora A) = target: T12, AURKA (Aurora A) (Homo sapiens, UniProt O14965); experiment: Kinase panel profiling: AURKA; assay type: biochemical; details: ATP equal to KM
T12 construct: purchased Thermo Fisher Scientific (Invitrogen) SelectScreen (Z'-LYTE)
T12 sequence (O14965 1-403): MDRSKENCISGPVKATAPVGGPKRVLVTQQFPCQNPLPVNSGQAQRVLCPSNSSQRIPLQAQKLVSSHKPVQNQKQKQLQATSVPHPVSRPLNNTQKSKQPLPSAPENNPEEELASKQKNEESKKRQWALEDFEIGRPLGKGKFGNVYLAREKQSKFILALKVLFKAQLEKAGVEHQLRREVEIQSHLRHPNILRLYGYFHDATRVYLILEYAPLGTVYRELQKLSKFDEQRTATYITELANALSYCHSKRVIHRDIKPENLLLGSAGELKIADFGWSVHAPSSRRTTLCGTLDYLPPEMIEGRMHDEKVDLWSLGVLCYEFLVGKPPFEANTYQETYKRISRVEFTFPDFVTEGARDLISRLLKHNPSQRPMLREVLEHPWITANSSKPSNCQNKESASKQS

[4] = system: KIT-positive cell line GIST-T1; experiment: GIST-T1 CellTiter-Glo cell viability assay; assay type: cell-based; details: Homo sapiens, GISTT1; cellular proliferation, GIST-T1, 72 h
FLT1 (VEGFR1) = target: T13, FLT1 (VEGFR1) (Homo sapiens, UniProt P17948); experiment: Kinase panel profiling: FLT1; assay type: biochemical; details: ATP equal to KM
T13 construct: purchased Thermo Fisher Scientific (Invitrogen) SelectScreen (Z'-LYTE)
T13 sequence (P17948 27-1338): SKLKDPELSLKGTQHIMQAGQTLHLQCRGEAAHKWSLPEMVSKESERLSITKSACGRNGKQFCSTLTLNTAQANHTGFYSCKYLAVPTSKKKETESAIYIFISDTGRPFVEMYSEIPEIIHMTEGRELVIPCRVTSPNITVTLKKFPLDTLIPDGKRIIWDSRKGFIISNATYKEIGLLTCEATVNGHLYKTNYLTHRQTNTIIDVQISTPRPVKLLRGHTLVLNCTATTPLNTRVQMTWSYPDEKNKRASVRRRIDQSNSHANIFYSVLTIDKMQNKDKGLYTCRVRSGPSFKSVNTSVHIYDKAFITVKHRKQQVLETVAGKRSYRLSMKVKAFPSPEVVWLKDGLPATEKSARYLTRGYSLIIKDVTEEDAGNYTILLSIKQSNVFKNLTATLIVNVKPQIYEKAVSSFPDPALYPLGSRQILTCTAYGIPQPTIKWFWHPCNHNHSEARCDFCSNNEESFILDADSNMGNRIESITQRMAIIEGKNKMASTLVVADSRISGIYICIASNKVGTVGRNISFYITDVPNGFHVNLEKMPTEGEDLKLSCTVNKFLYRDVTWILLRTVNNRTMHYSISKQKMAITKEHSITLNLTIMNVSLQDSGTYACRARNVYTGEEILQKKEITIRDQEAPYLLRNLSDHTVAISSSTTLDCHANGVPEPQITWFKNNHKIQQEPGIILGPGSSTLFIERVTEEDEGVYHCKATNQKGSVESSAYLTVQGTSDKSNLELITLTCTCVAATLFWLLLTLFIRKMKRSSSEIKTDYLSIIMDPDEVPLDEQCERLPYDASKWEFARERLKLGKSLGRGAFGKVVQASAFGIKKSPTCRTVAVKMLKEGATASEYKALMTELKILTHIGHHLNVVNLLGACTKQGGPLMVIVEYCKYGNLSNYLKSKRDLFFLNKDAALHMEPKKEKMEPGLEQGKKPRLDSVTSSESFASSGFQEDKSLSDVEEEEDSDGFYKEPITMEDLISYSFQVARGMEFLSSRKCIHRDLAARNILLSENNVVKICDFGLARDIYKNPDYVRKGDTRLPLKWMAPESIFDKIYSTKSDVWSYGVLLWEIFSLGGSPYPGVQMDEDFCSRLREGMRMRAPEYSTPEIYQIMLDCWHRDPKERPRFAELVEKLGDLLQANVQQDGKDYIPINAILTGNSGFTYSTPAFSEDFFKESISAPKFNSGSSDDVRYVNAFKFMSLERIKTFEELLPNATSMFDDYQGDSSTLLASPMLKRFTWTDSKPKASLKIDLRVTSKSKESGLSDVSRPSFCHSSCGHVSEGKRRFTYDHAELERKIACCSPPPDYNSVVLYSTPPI

ROCK1 = ROCK1 (Homo sapiens, UniProt Q13464); experiment: Kinase panel profiling: ROCK1; assay type: biochemical; details: ATP equal to KM
CSF1R (FMS) = target: T14, CSF1R (FMS) (Homo sapiens, UniProt P07333); experiment: Kinase panel profiling: CSF1R; assay type: biochemical; details: ATP equal to KM
T14 construct: purchased Thermo Fisher Scientific (Invitrogen) SelectScreen (Z'-LYTE)

[5] = Mouse plasma protein binding; assay type: in vitro ADME; details: fraction bound, read-out: PPB (converted)
[6] = 1000 nM test concentration, read-out: Average inhibition (%)
[7] = 1000 nM, first data point, read-out: Inhibition (%)
[8] = 1000 nM, second data point, read-out: Inhibition (%)

Cc1cccc(CN(C)c2ncnc3[nH]c(-c4cn(Cc5cccnc5)nn4)cc23)c1 [Compound 27a, N-Methyl-N-(3-methylbenzyl)-6-(1-(pyridin-3-ylmethyl)-1H-1,2,3-triazol-4-yl)-7H-pyrrolo[2,3-d]pyrimidin-4-amine]
inhibition at 1 µM (ABL2 (Arg); [6]): 100% | inhibition at 1 µM (ABL2 (Arg); [7]): 100% | inhibition at 1 µM (MINK1; [6]): 76% | inhibition at 1 µM (MINK1; [7]): 75% | inhibition at 1 µM (MINK1; [8]): 77% | inhibition at 1 µM (PDGFRB (PDGFR beta); [6]): 34% | inhibition at 1 µM (PDGFRB (PDGFR beta); [7]): 32% | inhibition at 1 µM (PDGFRB (PDGFR beta); [8]): 35% | IC50 [1]: > 10 µM | inhibition at 1 µM (ALK; [6]): 24% | inhibition at 1 µM (ALK; [7]): 24% | inhibition at 1 µM (ALK; [8]): 25% | solubility kinetic [2]: 3.1 µM (≈ 1.27 µg/mL) | inhibition at 1 µM (DAPK1; [6]): 4% | inhibition at 1 µM (DAPK1; [7]): 13% | inhibition at 1 µM (DAPK1; [8]): -5% | IC50 (CSF1R): < 1 nM | selectivity score (S-score) (panel of 49 kinases; 30% inhibition as threshold): 0.51 | selectivity score (S-score) (panel of 49 kinases; 50% inhibition as threshold): 0.35 | inhibition at 1 µM (HCK; [6]): 77% | inhibition at 1 µM (HCK; [7]): 77% | inhibition at 1 µM (HCK; [8]): 76% | inhibition at 1 µM (FGFR1; [6]): 9% | inhibition at 1 µM (FGFR1; [7]): 9% | inhibition at 1 µM (FGFR1; [8]): 8% | inhibition at 1 µM (EGFR (ErbB1); [6]): 85% | inhibition at 1 µM (EGFR (ErbB1); [7]): 84% | inhibition at 1 µM (EGFR (ErbB1); [8]): 87% | inhibition at 1 µM (FER; [6]): 15% | inhibition at 1 µM (FER; [7]): 16% | inhibition at 1 µM (FER; [8]): 14% | HLM [3]: 53.7 µL/min/mg | inhibition at 1 µM (LYN B; [6]): 76% | inhibition at 1 µM (LYN B; [7]): 74% | inhibition at 1 µM (LYN B; [8]): 79% | inhibition at 1 µM (ABL1; [6]): 99% | inhibition at 1 µM (ABL1; [7]): 99% | Papp A→B (MDCK permeability assay; A-B direction): 1.27 ×10⁻⁶ cm/s | Papp B→A (MDCK permeability assay; B-A direction): 3.18 ×10⁻⁶ cm/s | efflux ratio (MDCK permeability assay; read-out: Ratio Papp B > A/Papp A > B): 2.5 | inhibition at 1 µM (AURKA (Aurora A); [6]): 38% | inhibition at 1 µM (AURKA (Aurora A); [7]): 35% | inhibition at 1 µM (AURKA (Aurora A); [8]): 40% | IC50 [4]: > 30 µM | inhibition at 1 µM (FLT1 (VEGFR1); [6]): 31% | inhibition at 1 µM (FLT1 (VEGFR1); [7]): 32% | inhibition at 1 µM (FLT1 (VEGFR1); [8]): 30% | inhibition at 1 µM (ROCK1; [6]): 0% | inhibition at 1 µM (ROCK1; [7]): 2% | inhibition at 1 µM (ROCK1; [8]): -2% | inhibition at 1 µM (CSF1R (FMS); [6]): 99% | inhibition at 1 µM (CSF1R (FMS); [7]): 99% | fraction unbound [5]: < 0.01
